The values that follow come from patent US20230372289A1, “ANDROGRAPHOLIDE DERIVATIVE FOR USE IN THE TREATMENT OF INFLAMMATORY DISEASES ASSOCIATED WITH A CYTOKINE STORM” (CONSEJO SUPERIOR DE INVESTIGACIONES CIENTÍFICAS (CSIC), priority 2020, published 2023).

The structures appear in SMILES notation. ≈ marks a conversion by molar mass, not a printed value. Entries after “also recorded” stand apart in the source; their conditions may differ.

Data set [1] concerns cells involved in the inflammatory response. Description: Cellular inflammatory response in transgenic larvae (LYZ:Red) after SVCV infection, treatment by microinjection. In kind it is in vivo, Danio rerio. Conditions: microinjection 2 nl concomitant with SVCV, 2 hpi, vs control groups. As to the method:
(§1) Anti-inflammatory activity studies of the compounds were carried out in wild type fish, determining the expression levels of the pro-inflammatory cytokines IL-1β and IL-6. Transgenic larvae with labeled fluorescent neutrophils (Tg(Mpx:GFP)i114) or fluorescent myeloid cells (Tg(LYZ:Red)) were also used to assess how different treatments affect the inflammatory response of these cells. The inflammatory stimulus used was both the virus itself, which causes activation of the inflammasome and death of macrophages by pyroptosis (Varela et al. J. Virol. 2016, 88, 12026), as well as an acute stimulus of inflammation generated by a wound in the tail. The migration of fluorescent leukocytes from these transgenic lines was studied by means of microscopy and image analysis.
In a first assay, the cellular response to inflammation was quantified in transgenic Danio rerio larvae (LYZ:Red) after an infection with SVCV treated or untreated (control) with the AG1 compounds (28 μM), AG3 (10 μM), AG4 (10 μM), AG5 (10μM) and EAp (10 μg/ml). The treatments were carried out by microinjection (2 nl in the duct of Cuvier) of the drugs in fish 3 days post-fertilization (5-10 fish/well), concomitantly administering the virus and the different compounds. […] At 2 h post-injection (2 hpi), the number of cells involved in the inflammatory response was determined.

The subject of data set [2] is New Zealand rabbits. Description: Single intravenous dose toxicity (phase I, OECD 425). The class given is in vivo. Conditions: AG-5 in PBS (3 mg/ml). As to the method:
(§2) As part of the preclinical evaluation of toxicity, the purpose of this study was to define the MRD of AG-5, formulated as a solution in PBS (3 mg/ml), in a non-rodent mammalian species, that is, rabbit, under GLP and to provide data of toxicological interest.
(§3) To this end, a two-phase study was designed: i) in phase I, the product was administered intravenously in a single dose and following OECD guidelines 425, to a total of 4 New Zealand rabbits (2 males and 2 females) of about 2.5 kg and 12-13 weeks old, and the maximum tolerated dose (MTD) range was provisionally determined; ii) in phase II, the animals (a total of 4 New Zealand rabbits of about 2.5 kg and 12-13 weeks old) were given a daily intravenous administration for 7 days and the MRD that will serve as a reference (highest dose to be used) was confirmed.
(§4) The initial dose to be used in phase I was selected based on the data obtained by the laboratory after the administration of AG-5 in rats at a repeated dose of up to 30 mg/kg, for 7 days. In this study, the dose of 30 mg/kg was established as the MRD to be used in subsequent general toxicity studies. […] The dose to be tested in phase II was determined based on the results obtained in phase I, selecting a dose from the dose interval lower than that at which serious toxic effects would have been observed, with a maximum of 15 mg/kg/day as MFD, in application of the ICH M3(R2) guideline. The study considered the complete assessment of the symptoms, that is, intensity, time of onset and reversibility, the study of analytical (hematological and biochemical) parameters and the determination of the weight of toxicity target organs, to be fundamental.

In a further data set the test system is IL-6. Description: IL-6 gene expression by qPCR in wild type larvae infected with SVCV, bath treatment. The class given is in vivo, Danio rerio. Conditions: 10 μM bath for 24 h, then SVCV injection, qPCR at 24 h, vs untreated control groups. As to the method:
as §1
In a third and final assay, the gene expression of proinflammatory cytokines was determined in Danio rerio (wild type) larvae treated with the AG1 (5 μM), AG3 (5 μM), AG4 (10 μM), AG5 (10 μM) compounds and EAp (10 μg/ml), and subsequently infected with SVCV. The treatments were carried out in a bath for 24 h on fish 1 day post-fertilization (10 fish/well). The experiment was carried out in quadruplicate (n=4). On the second day post-fertilization each fish was injected (2 nl in the duct of Cuvier) 5×10^4 TCID50/mL of SVCV. At 24 h, the expression of IL-6 was determined by qPCR.
(Real-time PCR tracks product formation cycle by cycle.)

Data set [3] deals with Salmonella typhimurium strains TA98, TA100, TA102, TA1535 and TA1537. Kind of data set: Ames test. In kind it is cell-based. The protocol: The aim of the study was to characterize the possible genotoxic effect of the assay product AG-5 by means of the Ames test (Ames et al. Proc. Nat. Acad. Sci. USA 1973, 70, 783). To that end, it was determined in a study carried out under GLP whether AG-5 has the ability to produce gene mutations, either by substitution or by mismatch, in Salmonella typhimurium bacteria histidine (His-) auxotrophs.
The study was carried out with strains TA98, TA100, TA102, TA1535 and TA1537 in the presence and in the absence of metabolic activation (S9 mixture). The doses recommended by the OECD guidelines were tested: 100 mg/ml, that is, equivalent to 5000 μg/plate, and […] other lower concentrations (33.3; 11.1; 3.7 and 1.2 mg/ml). […] The results were negative in the 5 bacterial strains (TA98, TA100, TA102, TA1535 and TA1537) both in the presence and in the absence of metabolic activation.
(The Ames test detects mutagens through reverse mutation in bacteria.)

Data set [4] concerns Wistar rats. Description: Repeated dose toxicity, daily intravenous administration for 7 days (phase II). In kind it is in vivo. Conditions: AG-5 in PBS (3 mg/ml). As to the method: (§5) As part of the preclinical toxicity evaluation, the purpose of this study was to define the maximum repeated dose (MRD) of AG-5, formulated as a solution in PBS (3 mg/ml), in a mammalian rodent species under good laboratory practice (GLP) and to provide data of toxicological interest. To this end, a two-phase study was designed: i) in phase I, the product was administered intravenously in a single dose and following OECD guidelines 425 (OECD Guidelines for the testing of chemicals. Guidelines 425: Acute oral toxicity: up and down procedure. Adopted 3 Oct. 2008), to a total of 12 8-week old female Wistar rats by means of a dose escalation process (incremental factor 3.2), the maximum tolerated dose (MTD) was provisionally determined; ii) in phase II, the animals (a total of 8-week old Wistar rats, 15 males and 15 females) were given a daily intravenous administration for 7 days and the MRD was confirmed.
The initial dose to be used in phase I was selected from the sequence of doses included in OECD guidelines 425, that is, 5.5, 17.5 and 30 mg/kg of body weight. […]

Data set [5] in a line: Solubility of the product in PBS. The class given is physicochemical. Conditions: aqueous buffer.
Data set [6] deals with Wistar rats. Description: Single intravenous dose toxicity (phase I, OECD 425). In kind it is in vivo. Conditions: AG-5 in PBS (3 mg/ml). The protocol:
as §5
The initial dose to be used in phase I was selected from the sequence of doses included in OECD guidelines 425, that is, 5.5, 17.5 and 30 mg/kg of body weight. The doses to be tested in phase II were determined based on the results obtained in phase I, selecting 3 doses from the dose interval lower than that in which serious toxic effects would have been observed, that is, 15, 20 and 30 mg/kg/day, with 30 mg/kg being the maximum feasible dose (MFD), in application of the ICH M3(R2) guideline (ICH Harmonized Tripartite Guideline. Non-Clinical Safety Studies for the Conduct of Human Clinical Trials and Marketing Authorization for Pharmaceuticals M3 (R2). Current Step 5 version dated 11 Jun. 2009). The study considered the complete assessment of the symptoms, that is, intensity, time of onset and reversibility, the study of analytical (hematological and biochemical) parameters and the determination of the weight of toxicity target organs, to be fundamental.

Data set [7] has as its system New Zealand rabbits. Description: Repeated dose toxicity, daily intravenous administration for 7 days (phase II). The class given is in vivo. Conditions: AG-5 in PBS (3 mg/ml), intravenous daily for 7 days. The protocol: as §2, §3, §4
Data set [8] concerns migration of neutrophils to the wound. Kind of data set: Acute inflammatory response produced by a tail wound, neutrophil migration in Tg(Mpx:GFP)i114 larvae, bath treatment. In kind it is in vivo, Danio rerio. Conditions: 10 μM by bath, tail cut after 24 hours, neutrophils counted 24 hours after the wound. The protocol: as §1
In a second assay, the effect of the different compounds on an acute inflammatory response produced by a wound was analyzed. To that end, transgenic fish with fluorescent neutrophils (Tg(Mpx:GFP)i114) were used and their migration to the affected area was analyzed. The AG1 (5 μM), AG3 (5 μM), AG4 (10 μM), AG5 (10 μM) compounds and EAp (10 μg/ml) were administered by bath and after 24 hours the wound was made by cutting the end area of the tail. After 24 hours, neutrophils that migrated to the area of the wound were counted. […] FIG. 3.

With `C=C1CCC2C(C)(CO)C(O)CCC2(C)C1CC=C1C(=O)OCC1O` (stereo not shown) [AG1, 3-[2-[-decahydro-6-hydroxy-5-(hydroxy-methyl)-5,8a-dimethyl-2-methylene-1-naphthalenyl]ethylidene]dihydro-4-hydroxy-2(3H)-furanone, reference compound], in data set [1] (28 μM), the “cellular inflammatory response induced by the viral infection (number of cells involved in the inflammatory response)” value is “significantly reduce”.

For `C=C1CC[C@@H]2[C@](C)(CO)[C@H](O)CC[C@@]2(C)[C@@H]1C[C@H](C1=CCOC1=O)S(=O)(=O)O` [AG5, 14-deoxy-12(R)-sulfo-andrographolide], the “cellular inflammatory response induced by the viral infection (number of cells involved in the inflammatory response)” value in data set [1] (10 μM) is recorded as “significantly reduce”. Moreover, in the data set with New Zealand rabbits [2] (intravenous single dose), the “LD50 estimated in rabbits” value is “greater than 15 mg/kg of body weight” and the “MTD level in rabbits in a single dose” value is 15 mg/kg of body weight. The lethality entry with New Zealand rabbits [2] (intravenous single dose 15 mg/kg, New Zealand rabbits) is “did not produce lethality in any animal”. Further, the “associated signs of toxicity” value in the data set with New Zealand rabbits [2] (intravenous single dose 15 mg/kg, rabbits) is “No associated signs of toxicity were observed”. Moreover, the “IL-6 production (gene expression) in infection by SVCV” value in the data set on IL-6 is “significantly reduce”. Further, the “precipitation of the product or toxicity (preliminary dose test)” value in [3] (100 mg/ml (5000 μg/plate) and lower concentrations (33.3; 11.1; 3.7 and 1.2 mg/ml)) is listed as “No precipitation of the product or toxicity was observed”. Further, the “mutagenicity test (gene mutations)” value in data set [3] (5 strains, in the presence and in the absence of metabolic activation (S9 mixture), up to 5000 μg/plate) is recorded as “negative; also recorded: did not induce gene mutations”. Also, in the data set with Wistar rats [4] (intravenous daily for 7 days), the “MRD (maximum repeated dose)” value is listed as 30 mg/kg. Further, the “changes in analytical parameters, macroscopic alterations in abdominal and thoracic organs, absolute or relative weight of the organs” value with Wistar rats [4] (intravenous daily for 7 days, 15, 20 and 30 mg/kg) is “No toxicologically relevant changes”. The compound also returned a solubility in data set [5] of 3000 µg/mL (≈ 7.24 mM). Moreover, in the data set on Wistar rats [6], the “LD50 estimated in rats” value is reported as “greater than 30 mg/kg of body weight” and the “MTD level in rats in a single dose” value is reported as 30 mg/kg of body weight. Further, the “signs of toxicity related to the administration” value with Wistar rats [6] (all doses tested in phase I) is given as “nor did it produce signs of toxicity”. Further, in the data set with New Zealand rabbits [7] (15 mg/kg, rabbit study), the “changes in analytical parameters, macroscopic alterations in abdominal and thoracic organs, absolute or relative weight of the organs” value is recorded as “No toxicologically relevant changes”; the “mortality or alterations in the general symptoms” value was “did not produce mortality or alterations in the general symptoms”. Further, in the data set with New Zealand rabbits [7] (rabbits), the “MRD (maximum repeated dose)” value worked out at 15 mg/kg. Moreover, the “inflammatory response generated by the migration of neutrophils to the wound” value in [8] is given as “significantly decreased”.

As a reminder, the solubility is how much of the substance goes into solution per volume. Low values mean a poorly soluble substance, high ones a readily soluble substance.
